Experimental data from publication PMC5378356, “Differential inhibition of activity, activation and gene expression of MMP-9 in THP-1 cells by azithromycin and minocycline versus bortezomib: A comparative study” (PLoS ONE, 2017).

Biological target: T1, matrix metalloproteinase-9 (MMP-9, gelatinase B) (Homo sapiens, UniProt P14780)
T1 construct: gene MMP9
Assay: fluorogenic DQ-gelatin degradation assay with active MMP-9; also gelatin zymography with compound in the incubation buffer
Assay type: biochemical

T1 sequence (P14780 107-707): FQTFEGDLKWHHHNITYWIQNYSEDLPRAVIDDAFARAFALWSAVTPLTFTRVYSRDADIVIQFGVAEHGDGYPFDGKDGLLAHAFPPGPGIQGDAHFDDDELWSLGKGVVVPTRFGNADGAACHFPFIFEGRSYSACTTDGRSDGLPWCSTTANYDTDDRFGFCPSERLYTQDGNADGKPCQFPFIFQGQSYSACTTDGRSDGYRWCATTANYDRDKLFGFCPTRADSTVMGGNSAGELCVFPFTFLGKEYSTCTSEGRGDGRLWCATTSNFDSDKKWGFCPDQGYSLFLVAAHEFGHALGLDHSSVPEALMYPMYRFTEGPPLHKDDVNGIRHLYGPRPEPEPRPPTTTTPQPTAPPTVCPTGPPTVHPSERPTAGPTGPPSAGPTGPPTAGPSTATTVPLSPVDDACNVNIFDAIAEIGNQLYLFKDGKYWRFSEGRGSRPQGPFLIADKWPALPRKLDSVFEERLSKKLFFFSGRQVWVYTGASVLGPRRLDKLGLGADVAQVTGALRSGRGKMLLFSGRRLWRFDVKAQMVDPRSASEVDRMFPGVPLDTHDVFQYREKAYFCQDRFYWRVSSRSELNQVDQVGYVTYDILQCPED

IC50: 272 µM
Structure (SMILES): CN(C)c1ccc(O)c2c1C[C@H]1C[C@H]3[C@H](N(C)C)C(O)=C(C(N)=O)C(=O)[C@@]3(O)C(O)=C1C2=O [minocycline]
